Results from ChEMBL document CHEMBL1201862, “PubChem BioAssay data set” (2004).
Calls of active or inactive are those of the source.

Assays:
[1] = biological target: Peroxisome proliferator-activated receptor gamma/Nuclear receptor coactivator 3 (Homo sapiens, UniProt P37231); experiment: (§1) TR-FRET dose response biochemical High Throughput Screening assay for agonists of the steroid receptor coactivator 3 (SRC-3) recruitment by the peroxisome proliferator-activated receptor gamma (PPAR gamma): non-selective agonists. [Related pubchem assays: 1301 (Confirmation screen.), 1048 (Primary screen.)]; assay type: functional
[2] = biological target: Peroxisome proliferator-activated receptor gamma/Nuclear receptor coactivator 1 (Homo sapiens, UniProt P37231); experiment: as §1, with “1 (SRC-1)” for “3 (SRC-3)”, “assays (depositor defined):AID1300, AID1808, AID504735, AID631]” for “assays: 1301 (Confirmation screen.), 1048 (Primary screen.)]”; assay type: protein assay
[3] = biological target: Peroxisome proliferator-activated receptor gamma/Nuclear receptor coactivator 2 (Homo sapiens, UniProt P37231); experiment: TR-FRET dose response biochemical High Throughput Screening assay for agonists of the steroid receptor coactivator 2 (SRC-2) recruitment by the peroxisome proliferator-activated receptor gamma (PPAR gamma): non-selective agonists. [Related pubchem assays: 1297, 1032 ]; assay type: functional
Leucine aminopeptidase = biological target: T1, Leucine aminopeptidase (Plasmodium falciparum 3D7, UniProt Q8IL11); experiment: P. falciparum M17LAP inhibitors, primary screen, biochemical, fluorogenic H-Leu-NHMec substrate, 1536-well (AID 1619); assay type: functional
T1 sequence (Q8IL11 whole entry): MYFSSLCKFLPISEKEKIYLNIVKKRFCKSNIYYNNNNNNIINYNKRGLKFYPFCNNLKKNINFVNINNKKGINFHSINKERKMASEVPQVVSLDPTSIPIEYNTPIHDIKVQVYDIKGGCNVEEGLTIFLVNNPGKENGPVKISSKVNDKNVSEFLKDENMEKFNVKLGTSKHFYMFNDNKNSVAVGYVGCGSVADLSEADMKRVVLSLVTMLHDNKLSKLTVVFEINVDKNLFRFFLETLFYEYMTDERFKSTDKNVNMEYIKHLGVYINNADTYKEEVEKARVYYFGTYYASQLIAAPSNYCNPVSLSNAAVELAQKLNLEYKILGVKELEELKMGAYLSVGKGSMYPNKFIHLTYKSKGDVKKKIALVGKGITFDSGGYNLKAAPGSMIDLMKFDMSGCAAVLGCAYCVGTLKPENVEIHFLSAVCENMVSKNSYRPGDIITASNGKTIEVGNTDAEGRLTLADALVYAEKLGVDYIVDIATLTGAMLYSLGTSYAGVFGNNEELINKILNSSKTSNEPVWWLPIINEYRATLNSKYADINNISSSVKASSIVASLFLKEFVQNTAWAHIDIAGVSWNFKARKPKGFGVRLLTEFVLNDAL

[4] = biological target: T2, Tyrosine-protein phosphatase non-receptor type 22 (Homo sapiens, UniProt Q9Y2R2); experiment: SAR LYP1 Fluorescent Assay using OMFP substrate for In Vitro dose response studies - Set 3. [Related pubchem assays (depositor defined):AID1779, AID1784, AID2140, AID2686]; assay type: functional
T2 sequence (Q9Y2R2 whole entry): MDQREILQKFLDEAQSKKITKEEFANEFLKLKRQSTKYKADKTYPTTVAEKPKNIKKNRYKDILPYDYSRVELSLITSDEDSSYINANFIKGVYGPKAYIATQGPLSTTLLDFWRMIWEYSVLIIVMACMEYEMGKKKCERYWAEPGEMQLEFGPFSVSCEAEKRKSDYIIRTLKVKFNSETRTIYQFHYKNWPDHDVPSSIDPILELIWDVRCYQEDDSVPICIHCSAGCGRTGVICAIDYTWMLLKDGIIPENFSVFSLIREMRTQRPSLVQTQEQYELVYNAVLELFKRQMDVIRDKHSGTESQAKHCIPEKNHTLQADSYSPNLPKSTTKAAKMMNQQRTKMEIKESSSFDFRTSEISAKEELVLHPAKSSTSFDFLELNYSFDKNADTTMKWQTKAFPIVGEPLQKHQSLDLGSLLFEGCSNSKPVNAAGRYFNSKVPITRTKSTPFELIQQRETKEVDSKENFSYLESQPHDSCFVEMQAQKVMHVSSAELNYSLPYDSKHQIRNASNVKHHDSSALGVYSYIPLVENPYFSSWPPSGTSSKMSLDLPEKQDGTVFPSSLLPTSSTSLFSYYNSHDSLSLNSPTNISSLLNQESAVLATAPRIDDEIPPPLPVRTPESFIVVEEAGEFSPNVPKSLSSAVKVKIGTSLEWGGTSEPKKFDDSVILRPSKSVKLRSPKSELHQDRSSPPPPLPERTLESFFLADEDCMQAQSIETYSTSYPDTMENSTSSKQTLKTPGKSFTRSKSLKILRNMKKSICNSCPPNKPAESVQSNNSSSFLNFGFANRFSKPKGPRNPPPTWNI

[5] = biological target: Tyrosine-protein phosphatase non-receptor type 12 (Homo sapiens, UniProt Q05209); experiment: SAR Selectivity Analysis of small molecule inhibitors of PEST using pCAP in a fluorescence assay. [Related pubchem assays (depositor defined):AID1779, AID1784, AID2135]; assay type: functional
Sequence of Tyrosine-protein phosphatase non-receptor type 12 (Q05209 whole entry): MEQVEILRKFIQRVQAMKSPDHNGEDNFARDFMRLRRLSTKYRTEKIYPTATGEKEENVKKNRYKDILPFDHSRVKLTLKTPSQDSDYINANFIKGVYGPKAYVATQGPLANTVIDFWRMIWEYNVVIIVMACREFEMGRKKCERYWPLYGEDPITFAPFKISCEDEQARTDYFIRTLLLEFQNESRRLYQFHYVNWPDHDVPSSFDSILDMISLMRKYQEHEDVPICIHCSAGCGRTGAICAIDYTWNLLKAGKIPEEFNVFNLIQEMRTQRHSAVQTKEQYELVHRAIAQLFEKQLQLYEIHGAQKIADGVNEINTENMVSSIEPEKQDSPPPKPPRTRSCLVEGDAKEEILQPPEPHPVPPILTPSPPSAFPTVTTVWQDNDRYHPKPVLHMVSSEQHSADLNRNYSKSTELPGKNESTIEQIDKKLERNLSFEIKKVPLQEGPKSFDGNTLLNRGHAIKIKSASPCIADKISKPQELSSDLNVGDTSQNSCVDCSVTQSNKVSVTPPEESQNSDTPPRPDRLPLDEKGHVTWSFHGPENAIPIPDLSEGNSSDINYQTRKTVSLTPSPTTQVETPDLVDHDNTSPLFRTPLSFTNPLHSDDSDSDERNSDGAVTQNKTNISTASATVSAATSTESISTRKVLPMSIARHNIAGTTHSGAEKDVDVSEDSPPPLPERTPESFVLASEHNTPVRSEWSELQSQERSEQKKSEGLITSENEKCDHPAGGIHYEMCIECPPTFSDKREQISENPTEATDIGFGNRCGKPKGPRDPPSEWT

[6] = biological target: T2, Tyrosine-protein phosphatase non-receptor type 22; experiment: SAR LYP1 Fluorescent Assay using OMFP substrate for In Vitro dose response studies - Set 2. [Related pubchem assays (depositor defined):AID1779, AID1784, AID2140, AID449726, AID488869]; assay type: functional
[7] = biological target: T3, Tyrosine-protein phosphatase non-receptor type 7 (Homo sapiens, UniProt P35236); experiment: HePTP (PTPN7) phosphatase inhibitor potency, SAR follow-up, biochemical, set 2 (AID 449736); assay type: functional
T3 sequence (P35236 whole entry): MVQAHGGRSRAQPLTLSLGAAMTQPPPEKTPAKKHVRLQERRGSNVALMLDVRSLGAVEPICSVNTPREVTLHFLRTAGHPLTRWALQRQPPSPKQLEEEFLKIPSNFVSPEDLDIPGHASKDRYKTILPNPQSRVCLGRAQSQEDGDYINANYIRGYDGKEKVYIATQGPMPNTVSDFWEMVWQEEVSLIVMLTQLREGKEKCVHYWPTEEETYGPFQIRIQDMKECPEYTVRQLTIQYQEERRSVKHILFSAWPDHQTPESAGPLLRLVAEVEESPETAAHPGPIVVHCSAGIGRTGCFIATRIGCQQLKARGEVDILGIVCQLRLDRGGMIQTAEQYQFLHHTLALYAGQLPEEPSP

[8] = biological target: T2, Tyrosine-protein phosphatase non-receptor type 22; experiment: SAR LYP1 Fluorescent Assay using pCAP substrate for In Vitro dose response studies - Set 2. [Related pubchem assays (depositor defined):AID1779, AID1784, AID2135, AID449727]; assay type: functional
[9] = biological target: T2, Tyrosine-protein phosphatase non-receptor type 22; experiment: LYP (PTPN22) phosphatase inhibitor potency, SAR follow-up, biochemical, pCAP fluorogenic substrate, fluorescence, set 3 (AID 449727); assay type: functional
[10] = biological target: T4, High affinity choline transporter 1 (Homo sapiens, UniProt Q9GZV3); experiment: CHT inhibitors, dose response, cell-based, 5-point CRC, membrane potential dye (AID 504840); assay type: functional
T4 sequence (Q9GZV3 whole entry): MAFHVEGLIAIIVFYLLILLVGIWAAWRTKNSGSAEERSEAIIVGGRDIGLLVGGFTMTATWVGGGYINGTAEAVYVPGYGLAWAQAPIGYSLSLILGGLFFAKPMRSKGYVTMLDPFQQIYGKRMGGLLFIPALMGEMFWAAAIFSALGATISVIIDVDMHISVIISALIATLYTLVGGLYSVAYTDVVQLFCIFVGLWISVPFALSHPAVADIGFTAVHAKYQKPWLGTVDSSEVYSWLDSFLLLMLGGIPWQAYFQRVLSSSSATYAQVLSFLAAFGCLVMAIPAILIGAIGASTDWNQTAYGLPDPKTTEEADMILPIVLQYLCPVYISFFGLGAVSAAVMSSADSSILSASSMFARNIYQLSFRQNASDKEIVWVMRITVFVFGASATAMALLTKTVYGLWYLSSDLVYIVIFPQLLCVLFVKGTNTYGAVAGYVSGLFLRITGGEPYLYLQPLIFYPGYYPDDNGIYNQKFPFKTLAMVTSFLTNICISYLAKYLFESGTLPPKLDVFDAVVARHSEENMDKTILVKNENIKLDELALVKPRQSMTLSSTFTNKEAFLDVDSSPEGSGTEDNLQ

Albumin = Albumin (Bos taurus, UniProt P02769); experiment: Counterscreen for inhibitors of T-cell receptor (TCR)-CD3 interaction: Fluorescence-based biochemical high throughput dose response assay to identify inhibitors of T-cell receptor (TCR)-CD3 interaction using a TAMRA-labeled BSA probe.; assay type: functional
Sequence of Albumin (P02769 whole entry): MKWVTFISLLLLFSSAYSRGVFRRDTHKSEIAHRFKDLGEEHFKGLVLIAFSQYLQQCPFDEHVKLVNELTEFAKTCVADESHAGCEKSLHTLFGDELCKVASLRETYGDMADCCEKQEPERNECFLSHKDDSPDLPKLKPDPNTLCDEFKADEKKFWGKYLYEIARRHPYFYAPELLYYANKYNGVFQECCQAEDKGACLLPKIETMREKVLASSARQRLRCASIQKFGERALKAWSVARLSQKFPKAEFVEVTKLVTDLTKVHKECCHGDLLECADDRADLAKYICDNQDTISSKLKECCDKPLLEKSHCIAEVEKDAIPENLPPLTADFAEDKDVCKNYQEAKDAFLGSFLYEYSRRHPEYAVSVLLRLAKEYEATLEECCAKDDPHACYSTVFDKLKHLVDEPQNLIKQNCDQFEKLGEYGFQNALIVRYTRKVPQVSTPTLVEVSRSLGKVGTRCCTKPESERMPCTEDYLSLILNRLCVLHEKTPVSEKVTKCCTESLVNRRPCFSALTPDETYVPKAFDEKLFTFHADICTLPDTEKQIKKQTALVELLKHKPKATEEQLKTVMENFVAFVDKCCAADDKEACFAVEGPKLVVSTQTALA

[11] = biological target: Intestinal-type alkaline phosphatase (Homo sapiens, UniProt P09923); experiment: activation of human intestinal alkaline phosphatase – biochemical, dose response (AID 488873); assay type: functional
Sequence of Intestinal-type alkaline phosphatase (Homo sapiens, UniProt P09923) (P09923 whole entry): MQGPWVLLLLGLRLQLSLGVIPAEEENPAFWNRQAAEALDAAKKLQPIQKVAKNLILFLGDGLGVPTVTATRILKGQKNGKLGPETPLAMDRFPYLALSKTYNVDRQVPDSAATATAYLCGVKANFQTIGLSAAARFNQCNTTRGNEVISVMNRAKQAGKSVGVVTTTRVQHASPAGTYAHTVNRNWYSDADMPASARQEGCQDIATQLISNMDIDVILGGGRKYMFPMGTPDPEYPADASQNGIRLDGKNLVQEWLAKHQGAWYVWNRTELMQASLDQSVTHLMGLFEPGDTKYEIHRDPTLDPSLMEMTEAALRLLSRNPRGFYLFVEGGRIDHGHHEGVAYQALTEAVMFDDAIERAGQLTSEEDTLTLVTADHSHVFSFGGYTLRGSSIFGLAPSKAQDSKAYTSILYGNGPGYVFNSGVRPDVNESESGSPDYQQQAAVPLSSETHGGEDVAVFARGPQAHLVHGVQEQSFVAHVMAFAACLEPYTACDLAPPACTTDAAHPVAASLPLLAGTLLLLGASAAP

[12] = biological target: T5, Alkaline phosphatase, tissue-nonspecific isozyme (Homo sapiens, UniProt P05186); experiment: TNAP enzyme inhibition by screening hits, dose response, selectivity assay for mouse IAP inhibitor project, biochemical, human TNAP, uHTS hits (AID 488906); assay type: functional
T5 sequence (P05186 whole entry): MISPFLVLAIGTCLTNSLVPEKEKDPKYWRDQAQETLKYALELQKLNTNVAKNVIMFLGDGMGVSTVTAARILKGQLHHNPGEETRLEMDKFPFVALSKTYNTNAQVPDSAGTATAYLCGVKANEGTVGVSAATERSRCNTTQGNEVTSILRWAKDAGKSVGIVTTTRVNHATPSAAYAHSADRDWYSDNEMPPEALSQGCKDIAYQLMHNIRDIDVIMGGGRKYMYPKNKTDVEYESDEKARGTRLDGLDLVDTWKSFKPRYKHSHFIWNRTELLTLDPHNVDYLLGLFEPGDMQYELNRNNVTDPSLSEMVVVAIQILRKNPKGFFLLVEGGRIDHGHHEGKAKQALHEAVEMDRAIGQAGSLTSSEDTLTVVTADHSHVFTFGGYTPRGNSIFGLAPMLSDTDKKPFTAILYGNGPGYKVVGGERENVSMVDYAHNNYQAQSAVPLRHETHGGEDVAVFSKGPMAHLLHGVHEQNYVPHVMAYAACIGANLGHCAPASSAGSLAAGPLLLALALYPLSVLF

[13] = biological target: Intestinal-type alkaline phosphatase (Mus musculus, UniProt P24822); experiment: PubChem AID 488785; assay type: functional
Large T antigen = Large T antigen (Simian virus 40, UniProt P03070); assay type: functional, Betapolyomavirus macacae;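 note: Confirmatory-stage PubChem screen for compounds that inhibit SV40 T antigen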
Sequence of Large T antigen (P03070 whole entry, the tested form may be a part): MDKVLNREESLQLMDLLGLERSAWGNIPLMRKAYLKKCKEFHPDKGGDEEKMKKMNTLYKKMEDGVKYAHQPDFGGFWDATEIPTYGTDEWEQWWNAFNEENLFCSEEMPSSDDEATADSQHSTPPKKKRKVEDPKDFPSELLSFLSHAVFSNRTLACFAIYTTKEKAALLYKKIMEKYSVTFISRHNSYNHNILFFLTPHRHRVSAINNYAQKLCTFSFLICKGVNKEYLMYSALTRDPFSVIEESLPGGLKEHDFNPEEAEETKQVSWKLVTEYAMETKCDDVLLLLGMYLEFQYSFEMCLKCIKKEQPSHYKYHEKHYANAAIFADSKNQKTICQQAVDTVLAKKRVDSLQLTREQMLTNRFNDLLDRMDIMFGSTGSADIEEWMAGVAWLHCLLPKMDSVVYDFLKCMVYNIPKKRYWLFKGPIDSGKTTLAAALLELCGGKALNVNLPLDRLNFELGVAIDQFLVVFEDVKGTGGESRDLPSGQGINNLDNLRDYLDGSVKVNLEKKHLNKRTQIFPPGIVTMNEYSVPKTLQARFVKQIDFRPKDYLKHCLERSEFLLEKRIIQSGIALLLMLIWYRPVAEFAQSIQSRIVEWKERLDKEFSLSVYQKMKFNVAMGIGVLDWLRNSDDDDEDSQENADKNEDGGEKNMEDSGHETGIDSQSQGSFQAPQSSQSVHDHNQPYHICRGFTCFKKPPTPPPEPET

[14] = biological target: T6, RNA-binding protein pos-1 (Caenorhabditis elegans, UniProt G5EF15); experiment: inhibitors of POS-1/mex-3 RNA binding, dose response, biochemical, fluorescence polarization (AID 1964);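 note: purified POS-1 fused to maltose binding protein made in E. coli; potency of compounds blocking POS-1 binding to fluorescent RNA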
T6 sequence (G5EF15 whole entry): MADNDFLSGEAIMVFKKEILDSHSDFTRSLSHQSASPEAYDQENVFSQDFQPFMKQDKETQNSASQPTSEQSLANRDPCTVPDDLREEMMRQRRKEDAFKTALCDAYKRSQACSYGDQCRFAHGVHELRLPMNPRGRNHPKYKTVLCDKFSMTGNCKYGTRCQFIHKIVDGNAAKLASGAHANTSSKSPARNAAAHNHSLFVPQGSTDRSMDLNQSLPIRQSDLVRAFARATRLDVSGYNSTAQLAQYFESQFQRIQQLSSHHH

[15] = biological target: T7, Zinc finger protein mex-5 (Caenorhabditis elegans, UniProt Q9XUB2); experiment: MEX-5/TCR-2 RNA interaction inhibitors, dose response, biochemical, C. elegans, fluorescence polarization (AID 1960)
T7 sequence (Q9XUB2 whole entry): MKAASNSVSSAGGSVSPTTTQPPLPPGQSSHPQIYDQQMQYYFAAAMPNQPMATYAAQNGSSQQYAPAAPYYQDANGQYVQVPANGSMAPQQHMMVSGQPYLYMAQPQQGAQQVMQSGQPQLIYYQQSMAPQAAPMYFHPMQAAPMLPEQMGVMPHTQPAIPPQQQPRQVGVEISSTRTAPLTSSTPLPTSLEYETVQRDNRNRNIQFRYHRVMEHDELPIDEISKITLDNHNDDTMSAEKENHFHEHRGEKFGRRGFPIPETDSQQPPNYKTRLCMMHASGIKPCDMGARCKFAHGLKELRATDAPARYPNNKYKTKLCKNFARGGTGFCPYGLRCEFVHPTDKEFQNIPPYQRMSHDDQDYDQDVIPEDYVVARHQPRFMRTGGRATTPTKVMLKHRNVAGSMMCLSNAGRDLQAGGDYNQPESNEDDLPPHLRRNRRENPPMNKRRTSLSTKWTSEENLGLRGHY

[16] = biological target: Ras and Rab interactor 1/Tyrosine-protein kinase ABL1 (Homo sapiens, UniProt P00519+Q13671); assay type: functional;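 note: biochemical TR-FRET dose-response test measuring inhibition of binding between Rin1 and Abl proteins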
Sequence of Ras and Rab interactor 1/Tyrosine-protein kinase ABL1 (P00519 whole entry): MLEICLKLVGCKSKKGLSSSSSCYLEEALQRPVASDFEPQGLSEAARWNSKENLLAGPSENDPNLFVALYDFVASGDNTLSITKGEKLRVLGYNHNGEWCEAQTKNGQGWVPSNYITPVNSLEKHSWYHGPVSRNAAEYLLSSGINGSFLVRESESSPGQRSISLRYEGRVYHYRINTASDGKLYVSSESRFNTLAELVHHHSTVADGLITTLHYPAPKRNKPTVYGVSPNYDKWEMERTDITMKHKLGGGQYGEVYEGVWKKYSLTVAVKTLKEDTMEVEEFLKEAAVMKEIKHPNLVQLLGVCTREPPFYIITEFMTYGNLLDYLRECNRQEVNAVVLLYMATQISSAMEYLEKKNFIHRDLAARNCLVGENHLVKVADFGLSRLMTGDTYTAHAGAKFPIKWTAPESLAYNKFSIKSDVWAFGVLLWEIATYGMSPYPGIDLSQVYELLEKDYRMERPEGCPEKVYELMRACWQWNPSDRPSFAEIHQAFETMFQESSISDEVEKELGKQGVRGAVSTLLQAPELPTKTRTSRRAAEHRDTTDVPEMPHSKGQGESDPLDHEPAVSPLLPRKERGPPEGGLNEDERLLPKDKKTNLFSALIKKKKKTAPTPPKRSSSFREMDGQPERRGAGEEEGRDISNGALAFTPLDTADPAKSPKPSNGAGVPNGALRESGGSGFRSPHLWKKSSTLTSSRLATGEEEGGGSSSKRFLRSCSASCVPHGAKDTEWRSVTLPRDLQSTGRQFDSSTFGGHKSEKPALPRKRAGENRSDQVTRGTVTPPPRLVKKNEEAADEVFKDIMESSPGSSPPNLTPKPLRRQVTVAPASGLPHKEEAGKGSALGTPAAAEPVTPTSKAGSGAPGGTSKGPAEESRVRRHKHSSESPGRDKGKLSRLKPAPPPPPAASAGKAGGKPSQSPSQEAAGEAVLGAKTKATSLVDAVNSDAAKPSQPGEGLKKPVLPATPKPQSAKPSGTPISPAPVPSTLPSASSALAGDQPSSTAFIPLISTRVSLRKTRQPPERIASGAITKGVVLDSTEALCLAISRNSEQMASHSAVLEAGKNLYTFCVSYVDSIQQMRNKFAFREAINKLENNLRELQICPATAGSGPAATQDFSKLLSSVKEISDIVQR
Sequence of Ras and Rab interactor 1/Tyrosine-protein kinase ABL1 (Q13671 whole entry): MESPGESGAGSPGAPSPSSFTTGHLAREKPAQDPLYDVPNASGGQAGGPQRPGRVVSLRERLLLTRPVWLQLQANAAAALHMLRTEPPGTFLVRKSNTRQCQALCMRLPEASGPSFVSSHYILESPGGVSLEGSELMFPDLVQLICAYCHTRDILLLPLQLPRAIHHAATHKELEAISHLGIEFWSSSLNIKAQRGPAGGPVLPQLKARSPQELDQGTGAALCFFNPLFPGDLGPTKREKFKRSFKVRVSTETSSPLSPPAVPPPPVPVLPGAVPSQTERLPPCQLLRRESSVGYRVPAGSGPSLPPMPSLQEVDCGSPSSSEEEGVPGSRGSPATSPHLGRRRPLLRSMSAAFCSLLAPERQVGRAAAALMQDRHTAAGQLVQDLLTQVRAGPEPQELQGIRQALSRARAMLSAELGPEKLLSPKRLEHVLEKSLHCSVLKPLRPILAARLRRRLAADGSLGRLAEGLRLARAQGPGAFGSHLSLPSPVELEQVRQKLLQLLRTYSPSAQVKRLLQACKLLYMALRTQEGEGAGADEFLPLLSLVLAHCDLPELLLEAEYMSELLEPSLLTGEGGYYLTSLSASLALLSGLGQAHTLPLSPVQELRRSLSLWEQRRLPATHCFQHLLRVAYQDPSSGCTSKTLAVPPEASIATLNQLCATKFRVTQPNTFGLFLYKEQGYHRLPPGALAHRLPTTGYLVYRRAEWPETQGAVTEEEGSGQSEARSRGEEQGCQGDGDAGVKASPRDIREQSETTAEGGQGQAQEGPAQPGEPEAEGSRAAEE

SMILES: CCc1nnc(NS(=O)(=O)c2ccc(N/C=C\C(=O)c3cccc4ccccc34)cc2)s1
- EC50 [1]: > 8.82 µM (not active)
- EC50 [2]: > 79.4 µM (inactive)
- EC50 [3]: > 79.4 µM (not active)
- IC50 (Leucine aminopeptidase): 10.1 µM (active)

SMILES: CCOc1cc(C=NNC(=O)c2ccc(-c3csc(Nc4ccc(C)cc4)n3)cc2)ccc1OCC(=O)O
- IC50 [4]: 1.04 µM (active)
- IC50 [5]: 1 µM (active)
- IC50 [6]: 5.13 µM (active)
- IC50 [7]: 1.91 µM (active)
- IC50 [8]: 4.42 µM (active)
- IC50 [9]: 4.27 µM (active)

SMILES: Oc1ccc(C[C@H]2NCCc3cc(O)c(O)cc32)cc1O
- IC50 [10]: 0.47 µM (active)
- IC50 (Albumin): > 94.1 µM (inactive)
- EC50 [11]: > 100 µM (inactive)
- IC50 [12]: 10.1 µM (active)
- IC50 [13]: 8.06 µM (active)
- IC50 (Large T antigen): 9.06 µM (active)
- EC50 [14]: 6.36 µM (active)
- EC50 [15]: 5.43 µM (active)
- IC50 [16]: 2.33 µM (active)
